Test results taken from US20100184113A1, “CONTROLLING OSTEOGENESIS BY INHIBITION OF OSTEOGENIC SUPPRESSORS” (The Scripps Research Institute Office of Patent Counsel, priority 2006, published 2010).

What was measured:
Format in all cases: cell-based, human
PLZF = experiment: RT-PCR of PLZF; conditions: samples collected day 7 or day 12 after siRNA transfection
Experimental: Total RNA from each sample was prepared from around 5×10(4) cells using RNAeasy mini kit from Qiagen and further treated with Turbo DNA-Free (cat# 1907, Ambion) to prevent DNA contamination. Reverse transcription was carried out using SuperScript First-Strand Synthesis System for RT-PCR (cat# 11904-018, Invitrogen) or Qiagen OneStep RT-PCR kit (cat# 210210) as instructed. PCR primers used were as follows: […]
To test their roles in our siRNA induced osteogenic differentiation, RT-PCR was performed on these genes. […] In addition, MAPK signaling pathways have been shown activated in the OS treated hMSCs, and inhibition of these pathways suppresses OS induced osteogenesis (FIG. 9b) (Jaiswal, R. K. et al., J Biol Chem 275:9645-9652 (2000)).

hMSCs [1] = experiment: Alizarin red staining for calcium phosphate deposits (ECM mineralization, bone cell maturation); conditions: OS treatment started three days after siRNA transfection and continued for 9 days (3+9OS), vs siCon
hMSCs [2] = experiment: Adipogenic differentiation of hMSCs, Oil Red O staining; conditions: Adipo from third day after siRNA transfection, continued 12 days, Oil Red O
Experimental: Cells were rinsed with PBS twice, fixed in 10% formalin solution for 20 minutes, rinsed with PBS twice and dH2O once, washed with propylene glycol for 5 minutes, and stained with Oil red in propylene glycol (12722A, Newcomer Supply) for 30 minutes. Cells were then washed with 85% propylene glycol for 5 minutes, rinsed with dH2O 3 times and preserved in 50% glycerol.
8-CPT-cAMP, Na (cat# 116812), 5-Iodotubercidin (cat# 407900), Prostaglandin E2 (PGE2, cat# 538904), SB 202190 (cat# 559388) and U0126 (cat# 662005) were purchased from Calbiochem; N6,2′-O-Dibutyryl-cAMP (cat# D0260-5MG), forskolin (cat# F6886), ascorbic acid 2-phosphate (cat# 49752-10G), (3-glycerophosphate (G-6251), dexamethasone (D8893), 3-isobutyl-1-methylxanthine (IBMX, 15879) and Insulin (19278) were purchased from Sigma/Aldrich/Fluka.
Bone cell maturation is accompanied by extracellular matrix (ECM) mineralization (John Bilezikian et al., Principles of bone biology, Vol 1, 2nd edn: Academic Press) (2002)). To examine whether the osteogenic differentiation of hMSCs induced by the hit siRNAs can further proceed to the maturation stage, hit siRNA treated cells were cultured for 20 days. […] These observations are consistent with the conclusion that the targeted genes of the ten effective hit siRNAs not only play inhibitory roles in osteogenic specification of hMSCs, but also in bone cell maturation. […] Furthermore, in osteoporotic patients, the number of adipocytes was increased in the marrow, implying a change of cell fate disposition from osteoblast lineage to adipocyte lineage (Justesen, J. et al., Biogerontology 2:165-171 (2001); Meunier, P. et al., Clin Orthop Relat Res 80:147-154 (1971)). We therefore examined the effect of our hit siRNAs on adipogenic differentiation of hMSCs by combined treatment with an adipogenic inducing cocktail (100 μg/ml BMX, 1 μM DEX and 10 μg/ml insulin).
Since the targeted genes are all positively involved in intracellular cAMP signaling, we tested the effect of two compounds of opposing function on cAMP production on osteogenic differentiation of hMSCs, ADK inhibitor 5-iodotubercidin and ADCY activator forskolin (Cottam, H. B. et al., J Med Chem 36:3424-3430 (1993); de Souza, N. J. et al., Med Res Rev 3:201-219 (1983)). […] ATP has been shown as a ligand for P2RY11 receptor (Communi et al., 1997). […] The present observations are consistent with the conclusion that […] in hMSCs, and vice versa.

hMSCs [3] = experiment: Alkaline phosphatase (ALP) activity staining of hMSCs after siRNA transfection
Experimental: The human mesenchymal stem cells (hMSCs, PT-2501) were purchased from Cambrex Inc. and cultured as instructed by the supplier. Cells were expanded to passage 5 before being used for siRNA library screen. Briefly, diluted Xtreme-siRNA transfection reagent (cat# 476 115 00, Roche) (0.12 μl Xtreme in 14 μl DMEM) was mixed with pre-spotted siRNA (14 ng/well) in each well of 384-well plates for one hour. Cells (4000/well) in 60 μl media (no antibiotics) were then added using automated dispenser (Multidrop 384, Thermo LabSystems) (siRNA final concentration at around 15 nM). Transfection was allowed to continue for 8 hours before first media renewal. After 7 days of culture, cells were stained for alkaline phosphatase (ALP) activity (cat# 86R-1 KT, Sigma). Post-screen assays were done in 96-well plates and siRNA was transfected at the concentration of 30 nM at the cell density of 8000 cells/well. CRE decoy oligonucleotide and control oligonucleotide (phosphorothioate bond modification on all nucleotides) (Park, Y. G. et al., J Biol Chem 274:1573-1580 (1999)) were transfected into cells similarly as siRNA using Xtreme-siRNA transfection reagent, except that the final DNA concentration was 90 nM. […]

p38 = experiment: Western blot of phosphorylated p38; conditions: 72 hours after transfection
Experimental: Cell lyses buffer contains 20 mM Tris pH8.0, 1 mM EDTA, 150 mM NaCl and 0.5% NP-40, and before usage, protease inhibitor cocktail (Cat# p8340, Sigma, 1:100 dilution) and phosphatase inhibitor cocktail 2 (Cat# p5726, sigma, 1:100 dilution) were added. Proteins (60 μg/well) were separated in 12% Novex Tris-Glycine gel (Cat# EC6008 box, Invitrogen) and transferred to Nitrocellulose membrane (Cat# LC2001, Invitrogen) using the XCell II blot module system (Cat# E19051, Invitrogen). The membrane was blocked in 5% milk/PBST for 1 hour at room temperature, incubated over night at 4 degree with primary antibody, washed 3 times with PBST (0.05% Tween 20 in PBS), followed by one hour incubation with secondary antibody in 5% milk/PBST and 3 times wash with PBST at room temperature. For antibody against pCREB however, PBST was substituted with PBS in all steps except for the last one. Antibody-bound proteins were detected utilizing ECL Western blotting detection reagent (Amersham Biosciences).
Anti-phospho-CREB was purchased from Upstate Biotechnology (cat# 06-519); Anti-phospho-p38 was purchased from Cell signaling technology (cat# 9910).
We therefore examined the activation status of ERK1/2 and p38 in the siDUSP6 treated hMSCs along with other siRNA treated samples by western blot using antibodies against the phosphorylated form of the protein at 72 hours after transfection (FIG. 9c).

siMJD: siRNA CAGAUGCAUCGACCAAAAC targeting Machado-Joseph disease (ataxin 3) (listed as RNA, chemistry not given here)
expression of PLZF (PLZF): detected | intensity of alizarin red staining (hMSCs [1]): no significant effect

siCOMP: siRNA CGGUCACGGAUGACGACUA targeting cartilage oligomeric matrix protein (listed as RNA, further chemistry not given here)
adipogenesis induced by adipogenic inducing media (Adipo) (hMSCs [2]): enhances adipogenesis | osteogenic differentiation (ALP activity) (hMSCs [3]; 9 days after siRNA transfection): induces osteogenic differentiation of hMSCs

siDUSP6: siRNA CUGUGGUGUCUUGGUACAU targeting dual specificity phosphatase 6 (listed as RNA, chemistry not given here)
intensity of alizarin red staining (hMSCs [1]): modest enhancement | level of active (phosphorylated) p38 (p38): increased level of active p38

CBFA1 siRNA: CBFA1-specific siRNA, antisense UAGUAGAGAUAUGGAGUGCtg, sense GCACUCCAUAUCUCUACUAtt (chain 1 UAGUAGAGAUAUGGAGUGCTG; chain 2 GCACUCCAUAUCUCUACUATT; chemistry not given here) [reference compound]
ALP activity induced by hit siRNAs or OS on co-treatment (hMSCs [3]; co-transfected with each hit siRNA, vs co-treatment with siCon): reduced the level of ALP activity
